Laboratory results published in article PMC10230575 (Bioorganic & medicinal chemistry letters, 2022).
Where a chain is given by its changes, count along the chain named.

Key:
[1] = test system: human wild-type (WT) Slack channels; conditions: whole-cell patch clamp, HEK-293, human WT Slack; cited from earlier work
[2] = test system: mouse model of Kcnt1 GOF; conditions: orally available; cited from earlier work
[3] = test system: cortical neuronal culture; conditions: overexcited, spontaneously firing cortical neuronal culture; cited from earlier work
[4] = biological target: Maxi-K (Slo1 α1/β3) (Homo sapiens, UniProt Q12791); experiment: Tl+ flux assay in HEK-293 cells expressing Maxi-K; format: cell-based; conditions: for Maxi-K (Slo1 α1/β3) Efficacy: 30 µM test compound, % of maximum response for paxilline; for Maxi-K (Slo1 α1/β3) IC50: CRC, HEK-293 expressing Maxi-K; for Maxi-K (Slo1 α1/β3) IC50 / Maxi-K inhibition in words: Tl+ flux
[5] = biological target: T1, wild-type human (WT) Slack (Homo sapiens, UniProt Q5JUK3); experiment: Tl+ flux assay in HEK-293 cells stably expressing WT Slack; format: cell-based; conditions: for Slack activity profile in words: running text and footnotes, WT Slack Tl+ flux; for IC50 / EC50 (result in words): Table 3, no mode assigned
T1 sequence (Q5JUK3 1-1235 isoform Q5JUK3-3): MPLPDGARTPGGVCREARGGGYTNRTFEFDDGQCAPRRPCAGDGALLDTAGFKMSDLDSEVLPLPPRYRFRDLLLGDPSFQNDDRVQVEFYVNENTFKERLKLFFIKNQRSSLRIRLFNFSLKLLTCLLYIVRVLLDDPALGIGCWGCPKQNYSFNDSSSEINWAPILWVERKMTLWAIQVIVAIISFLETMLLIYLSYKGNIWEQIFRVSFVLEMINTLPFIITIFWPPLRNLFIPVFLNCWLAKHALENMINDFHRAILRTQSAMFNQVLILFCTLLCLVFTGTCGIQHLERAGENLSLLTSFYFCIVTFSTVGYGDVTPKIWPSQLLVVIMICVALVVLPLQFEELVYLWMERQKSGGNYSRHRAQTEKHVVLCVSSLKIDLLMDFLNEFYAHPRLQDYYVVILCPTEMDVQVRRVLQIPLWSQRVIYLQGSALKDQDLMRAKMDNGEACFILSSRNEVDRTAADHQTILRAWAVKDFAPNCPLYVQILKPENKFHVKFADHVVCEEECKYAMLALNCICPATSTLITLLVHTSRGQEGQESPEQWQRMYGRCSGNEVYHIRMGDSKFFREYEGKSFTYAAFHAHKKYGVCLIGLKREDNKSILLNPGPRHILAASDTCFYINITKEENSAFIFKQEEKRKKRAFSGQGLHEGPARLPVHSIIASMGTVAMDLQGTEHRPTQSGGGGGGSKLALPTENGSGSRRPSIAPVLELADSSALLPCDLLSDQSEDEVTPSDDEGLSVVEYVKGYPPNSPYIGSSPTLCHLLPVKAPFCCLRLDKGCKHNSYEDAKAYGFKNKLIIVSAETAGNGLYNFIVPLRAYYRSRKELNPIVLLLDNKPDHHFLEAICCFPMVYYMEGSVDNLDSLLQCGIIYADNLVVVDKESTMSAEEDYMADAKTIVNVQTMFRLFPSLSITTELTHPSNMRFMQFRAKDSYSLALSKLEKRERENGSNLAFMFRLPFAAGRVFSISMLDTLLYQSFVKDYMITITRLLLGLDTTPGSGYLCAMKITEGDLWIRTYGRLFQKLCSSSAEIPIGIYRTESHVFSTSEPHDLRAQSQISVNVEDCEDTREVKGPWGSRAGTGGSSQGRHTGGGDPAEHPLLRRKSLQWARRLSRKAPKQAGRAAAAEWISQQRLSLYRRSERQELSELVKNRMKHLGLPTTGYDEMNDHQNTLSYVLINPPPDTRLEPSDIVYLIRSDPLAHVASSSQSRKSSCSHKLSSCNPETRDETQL

[6] = biological target: T2, A934T Slack (Homo sapiens, UniProt Q5JUK3, A915T); experiment: Tl+ flux assay in HEK-293 cells expressing A934T Slack; conditions: Table 6; 30 µM test compound, % of maximum response for VU0606170
T2 sequence (Q5JUK3 1-1235 isoform Q5JUK3-3 A934T): T1 sequence (Q5JUK3 1-1235 isoform Q5JUK3-3) with A934T

Sequence of Maxi-K (Slo1 α1/β3) (Q12791 whole entry, species assumed): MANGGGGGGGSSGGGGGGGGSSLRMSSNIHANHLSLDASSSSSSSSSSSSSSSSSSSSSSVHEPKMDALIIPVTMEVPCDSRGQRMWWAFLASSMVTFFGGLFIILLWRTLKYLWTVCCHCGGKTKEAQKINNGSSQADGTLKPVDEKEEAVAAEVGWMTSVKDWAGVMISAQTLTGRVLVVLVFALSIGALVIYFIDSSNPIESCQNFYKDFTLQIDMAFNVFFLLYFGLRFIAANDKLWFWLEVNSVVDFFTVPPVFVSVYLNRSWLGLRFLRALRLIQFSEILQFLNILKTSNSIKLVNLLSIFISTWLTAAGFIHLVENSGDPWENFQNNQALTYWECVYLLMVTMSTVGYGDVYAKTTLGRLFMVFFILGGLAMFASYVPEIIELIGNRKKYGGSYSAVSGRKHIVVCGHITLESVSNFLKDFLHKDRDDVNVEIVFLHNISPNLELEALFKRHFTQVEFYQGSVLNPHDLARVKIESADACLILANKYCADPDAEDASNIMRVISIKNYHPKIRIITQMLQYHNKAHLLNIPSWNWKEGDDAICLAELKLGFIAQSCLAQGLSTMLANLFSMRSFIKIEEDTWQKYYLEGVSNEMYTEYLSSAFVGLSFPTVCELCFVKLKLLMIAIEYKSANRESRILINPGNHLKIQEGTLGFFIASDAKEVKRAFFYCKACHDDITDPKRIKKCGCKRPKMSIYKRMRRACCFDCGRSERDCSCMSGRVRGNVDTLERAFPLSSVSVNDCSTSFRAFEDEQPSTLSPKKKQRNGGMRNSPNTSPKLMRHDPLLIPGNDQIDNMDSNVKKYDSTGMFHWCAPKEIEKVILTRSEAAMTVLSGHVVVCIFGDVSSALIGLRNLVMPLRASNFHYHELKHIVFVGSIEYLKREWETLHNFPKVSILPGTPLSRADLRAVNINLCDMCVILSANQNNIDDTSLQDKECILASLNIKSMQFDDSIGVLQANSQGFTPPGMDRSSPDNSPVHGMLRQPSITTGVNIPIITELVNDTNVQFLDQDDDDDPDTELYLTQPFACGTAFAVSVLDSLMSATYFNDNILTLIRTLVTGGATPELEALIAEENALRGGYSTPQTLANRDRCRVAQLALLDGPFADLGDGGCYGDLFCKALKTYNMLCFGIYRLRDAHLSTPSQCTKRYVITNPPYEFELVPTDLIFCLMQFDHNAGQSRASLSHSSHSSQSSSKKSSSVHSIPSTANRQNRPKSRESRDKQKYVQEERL
Sequence of Maxi-K (Slo1 α1/β3) (Q9NPA1 whole entry partner, species assumed): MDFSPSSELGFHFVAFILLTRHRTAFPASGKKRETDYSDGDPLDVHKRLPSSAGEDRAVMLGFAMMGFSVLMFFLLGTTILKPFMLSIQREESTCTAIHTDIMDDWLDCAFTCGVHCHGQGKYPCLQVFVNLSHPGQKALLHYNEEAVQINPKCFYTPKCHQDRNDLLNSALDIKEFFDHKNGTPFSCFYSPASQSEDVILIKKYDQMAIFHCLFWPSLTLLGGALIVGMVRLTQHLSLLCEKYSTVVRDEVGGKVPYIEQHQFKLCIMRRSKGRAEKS

| Slack activity profile in words [5] | Compound | further results |
| --- | --- | --- |
| maintained the inhibitory profile | COc1ccccc1NC(=O)CN1CCN(S(=O)(=O)N2CCC(C)CC2)CC1 [Compound 21] |  |
| not effective | CC1CCN(S(=O)(=O)N2CCN(CC(=O)Nc3cc(Cl)ccc3F)CC2)CC1 [Compound 29] |  |
| not effective | CC1CCN(S(=O)(=O)N2CCN(CC(=O)Nc3cc(Cl)ccc3Cl)CC2)CC1 [Compound 30] |  |
| not effective | Cc1ccc(Cl)cc1NC(=O)CN1CCN(S(=O)(=O)N2CCC(C)CC2)CC1 [Compound 31] |  |
| weak activators | COc1ccc(Cl)cc1NC(=O)CN1CCN(S(=O)(=O)N2CCN(S(=O)(=O)N3CCC(F)(F)C3)CC2)CC1 [Compound 50] |  |
| weak activators | COc1ccc(Cl)cc1NC(=O)CN1CCN(S(=O)(=O)N2CCN(C(=O)N3CCCCC3)CC2)CC1 [Compound 51] |  |
| weak inhibitor | CCCC1CCN(C(=O)N2CCN(S(=O)(=O)N3CCN(CC(=O)Nc4cc(Cl)ccc4OC)CC3)CC2)CC1 [Compound 52] |  |
| mixed profile | COc1ccc(Cl)cc1NC(=O)CN1CCN(S(=O)(=O)N2CCN(C(=O)N3CCC(C(C)C)CC3)CC2)CC1 [Compound 53] |  |
| weak activators | COc1ccc(Cl)cc1NC(=O)CN1CCN(S(=O)(=O)N2CCN(C(=O)N3CCCCCC3)CC2)CC1 [Compound 55] |  |
| significantly reduced potency | COc1ccc(Cl)cc1NC(=O)CN1CCN(S(=O)(=O)N2CCC(C)CC2)[C@H](C)C1 [Compound 86] |  |
| equipotent to hit compound 4 | COc1ccc(Cl)cc1NC(=O)CN1CCN(S(=O)(=O)N2CCC(C)CC2)C[C@H]1C [Compound 87] | Maxi-K inhibition in words [4]: weak inhibition |
| moderately potent | COc1ccc(Cl)cc1NC(=O)N1CCCN(S(=O)(=O)N2CCC(C)CC2)CC1 [Compound 92] |  |

Second part, the compound before the results:

| Compound | Slack activity profile in words [5] | further results |
| --- | --- | --- |
| Cc1cccc(CC(=O)Nc2cnn(-c3cccc(C(=O)NCc4ccccc4-n4cncn4)c3)c2)c1 [Compound 1] |  | IC50 [1]: 3.2 µM |
| C[C@H](NC(=O)c1cc(C(F)(F)F)nn1C)c1nc(-c2ccnc(C(F)(F)F)c2)no1 [Compound 3] |  | EEG phenotype [2]: normalizes the EEG phenotype |
| COc1ccc(Cl)cc1NC(=O)CN1CCN(S(=O)(=O)N2CCC(C)CC2)CC1 [Compound 4] |  | firing rate [3]: decreased the firing rate; Maxi-K (Slo1 α1/β3) Efficacy [4]: inactive; Maxi-K (Slo1 α1/β3) IC50 [4]: inactive; IC50 / EC50 (IC50, inhibitors) ([5]; Table 1, CRC, Tl+ flux, HEK-293 WT Slack, Mode Inh): 2.4 µM |
| CC1CCN(S(=O)(=O)N2CCN(CC(=O)Nc3ccccc3Cl)CC2)CC1 [Compound 15] | mixed profile |  |
| Cc1ccccc1NC(=O)CN1CCN(S(=O)(=O)N2CCC(C)CC2)CC1 [Compound 18] | mixed profile |  |
| Cc1cccc(NC(=O)CN2CCN(S(=O)(=O)N3CCC(C)CC3)CC2)c1 [Compound 19] | mixed profile |  |
| COc1cccc(NC(=O)CN2CCN(S(=O)(=O)N3CCC(C)CC3)CC2)c1 [Compound 22] | mixed profile |  |
| COc1ccc(F)cc1NC(=O)CN1CCN(S(=O)(=O)N2CCC(C)CC2)CC1 [Compound 24] |  | A934T Efficacy [6]: 100% |
| COc1ccc(C(F)(F)F)cc1NC(=O)CN1CCN(S(=O)(=O)N2CCC(C)CC2)CC1 [Compound 27] |  | Maxi-K inhibition in words [4]: weak inhibition |
| COc1ccc(Cl)cc1NC(=O)CN1CCN(S(=O)(=O)N2CCN(S(=O)(=O)N3CCCCC3)CC2)CC1 [Compound 43] |  | IC50 / EC50 (result in words) [5]: inactive |
| COc1ccc(Cl)cc1NC(=O)CN1CCN(S(=O)(=O)N2CCN(S(=O)(=O)N3CCOCC3)CC2)CC1 [Compound 44] |  | IC50 / EC50 (result in words) [5]: inactive |
| COc1ccc(Cl)cc1NC(=O)CN1CCN(S(=O)(=O)N2CCN(S(=O)(=O)C3CCCCC3)CC2)CC1 [Compound 45] |  | IC50 / EC50 (result in words) [5]: inactive |
| COc1ccc(Cl)cc1NC(=O)CN1CCN(S(=O)(=O)N2CCN(S(=O)(=O)c3ccc(C)cc3)CC2)CC1 [Compound 47] |  | IC50 / EC50 (result in words) [5]: inactive |
| COc1ccc(Cl)cc1NC(=O)[C@H](C)N1CCN(S(=O)(=O)N2CCC(C(F)(F)F)CC2)CC1 [Compound 61] |  | Maxi-K (Slo1 α1/β3) Efficacy [4]: inactive; Maxi-K (Slo1 α1/β3) IC50 [4]: inactive; Maxi-K inhibition in words [4]: inactive |
| COc1ccc(Cl)cc1NC(=O)CN1CCN(S(=O)(=O)N2CCC(C)CC2)[C@@H](C)C1 [Compound 68] | significantly reduced potency |  |
| COc1ccc(Cl)cc1NC(=O)CN1CCN(S(=O)(=O)N2CCC(C)CC2)C[C@@H]1C [Compound 71] | well tolerated |  |
| COc1ccc(Cl)cc1NC(=O)CN(C)CCN(C)S(=O)(=O)N1CCC(C)CC1 [Compound 81] | retained inhibitory activity but exhibited reduced potency |  |
| COc1ccc(Cl)cc1NC(=O)N1CC2(CCN(S(=O)(=O)N3CCC(C)CC3)CC2)C1 [Compound 88] | weak activators |  |
| COc1ccc(Cl)cc1NC(=O)N1CC2(C1)CN(S(=O)(=O)N1CCC(C)CC1)C2 [Compound 90] | weak inhibitor |  |
| COc1ccc(Cl)cc1NC(=O)N1C[C@@H]2CN(S(=O)(=O)N3CCC(C)CC3)C[C@@H]2C1 [Compound 91] | devoid of activity |  |
